Values quoted from earlier work in patent US20040234631A1, “Composition comprising soy and use thereof in the provention and/or treatment of various diseases” (priority 2001, published 2004).

Columns and labels:
blood vessels = conditions: very low concentration
estrogenic effect = conditions: in vitro, reported by Knight

## 1-alkyl-2-acetyl analog of phosphatidyl choline [platelet-activating factor]
Blood vessels
  concentration causing dilation of blood vessels: 0.1 nM

## O=c1c(-c2ccc(O)cc2)coc2cc(O)ccc12 [daidzein]
Estrogenic effect
  relative estrogenic potency (estradiol = 100): 0.013
